Measurements: patent US10821127B2, “Composition for inhibiting myeloid-derived suppressor cells comprising decitabine or its pharmaceutically acceptable salt as active ingredient” (SNU R&DB Foundation, priority 2015, dated 2020)

What was measured:
MDSC = conditions: preclinical model; gemcitabine: spleen of tumor-induced mice (Clin Cancer Res 2005; 11: 6713-6721); cited from earlier work
IFN-γ = assay: Cytokine expression in tumor cells after decitabine treatment, PCR (Example 7): IFN-γ; assay type: cell-based; conditions: MC38 expressing the CEA gene, 0, 10, 100 nM, 48 hours; FIG. 14
Protocol: (§1) In order to verify a possibility of a result that the MDSC creation itself in the bone marrow is decreased by the tumor cells, in addition to a direct apoptotic effect of the MDSC by the reduction of the MDSC cell population caused by the decitabine, an expression change in cytokines inducing the creation of the MDSC cell population after treating the decitabine in the tumor cells was measured.
(§2) Particularly, the decitabine was treated in each well for each concentration 0, 10, 100 nM in a colon cancer cell line MC38 expressing the CEA gene which was cultured for 1 week in a 6-well plate and cultured for 48 hours, and then the cells were collected. Thereafter, from the collected cells, total RNA was isolated by using a trizol reagent (Invitrogen, Carlsbad, Calif.) and then the isolated RNA 5 μg reacted with reverse transcriptase for 1 hour at 42° C. to synthesize a cDNA and 5 minutes at 95° C. to inactivate the enzyme. Polymerase chain reaction (PCR) was performed by using a primer in the following Table 1 by using the cDNA as a template of PCR and a PCR product was electrophoresed with an agarose gel and visualized to confirm expression of IL-6, IFN-γ and VEGF genes.

MDSC cell population = assay: In vitro apoptosis of MDSC cell population, bone marrow stem cells co-cultured with MC38 in Transwell (Example 6); assay type: cell-based, mouse; conditions: 50 nM, as compared with the gemcitabine; FIG. 13
Protocol: In order to verify effects of decitabine and gemcitabine on apoptosis of an MDSC cell population, the decitabine or the gemcitabine was treated in vitro and then a change in the number of cells in the MDSC cell population was measured.
Particularly, from the tumorigenic mice prepared in Example 1, the bone marrow was extracted and then bone marrow stem cells were isolated. Thereafter, while the bone marrow stem cells in a bottom well and cells of a colon cancer cell line MC38 expressing a CEA gene were co-cultured in an insert well […] with a DMEM culture medium by using a Transwell system, the decitabine and the gemcitabine of concentrations of 50 nM were treated at a third day after cell culture, respectively, and then cells after two days were collected. Thereafter, in order to measure the numbers of cells in the myeloid-based cell population and the MDSC cell population, the cell populations were stained by using an anti-CD11b antibody and an anti-GR1 antibody and then the number of cells was measured through a flow cytometer.

[1] = system: cells in the spleen and the bone marrow; assay: Number of cells in spleen and bone marrow of tumorigenic mice, trypan blue staining (Example 3); assay type: in vivo, mouse; conditions: intraperitoneal, every 2 days, 10 times; for number of bone marrow cells: 0, 0.25, 0.5 mg/kg, FIG. 2 right
Protocol: (§3) 150 μl PBS including a colon cancer cell line MC38 1.5×10^6 expressing a human CEA gene was injected hypodermically to the right flank of a 7 to 8-week-old female B6 mouse to form a tumor. The mouse was bred in a Seoul National University laboratory under a temperature of 23.5±1° C. and a humidity of 50±5% in a light/dark cycle of 12 hours. All animal experiments followed the guideline of the Animal Ethics Committee of Seoul National University.
It was well-known that gemcitabine suppressed myeloid-derived suppressor cells (MDSC) derived from the tumor (Clin Cancer Res 2005; 11(18) Sep. 15, 2005), and the gemcitabine has been used as an anticancer chemotherapeutic agent. Accordingly, whether the decitabine is usable as an anticancer chemotherapeutic agent like the gemcitabine was verified through the comparison with the gemcitabine. First, in order to verify effects of decitabine and gemcitabine on cells in the spleen and the bone marrow, the decitabine and the gemcitabine were administrated to the tumorigenic mice prepared in Example 1 and then the number of cells in the spleen and the bone marrow was measured.
(§4) Particularly, in the tumorigenic mice prepared in Example 1, decitabine (DAC) or gemcitabine (GEM) were diluted with 100 μl PBS to be 0, 0.25, 0.5 mg/kg per mouse, administrated in the right abdominal cavity (every 2 days and a total of 10 times) for each concentration, and then sacrificed to extract the spleen and the bone marrow. Thereafter, spleen cells and bone marrow cells were extracted and stained by a trypan blue staining method and then the number of cells was measured by using a hematocytometer.

VEGF = assay: Cytokine expression in tumor cells after decitabine treatment, PCR (Example 7): VEGF; assay type: cell-based; conditions: MC38 expressing the CEA gene, 0, 10, 100 nM, 48 hours; FIG. 14
Protocol: as §1, §2

[2] = system: myeloid-derived suppressor cells; assay: Dose with MDSC suppression effect in tumorigenic mice; assay type: in vivo
Protocol: In the preferred embodiment of the present invention, the inventors verified that in order to verify whether the decitabine suppresses the myeloid-derived suppressor cells produced from the bone marrow by the tumor, tumorigenic mice were prepared and the decitabine was administrated for each concentration, and as a result, an effect of suppressing the myeloid-derived suppressor cells by the decitabine is excellent in a dose range of 0.5 to 1 mg/kg.
Accordingly, through Examples 1 to 8, it was verified that the decitabine had excellent effects of suppressing the MDSC and inducing the apoptosis as compared with the gemcitabine and may enhance the effect of a cancer immunotherapy. Further, when the decitabine has an excellent MDSC suppression effect at 0.5 mg/kg and a fifth part to a tenth part of an effective dose (5.25 mg/kg/once, 34 mg/kg/cycle) applied to an actual patient is compared with an effective dose of 120 mg/kg at which the gemcitabine has the MDSC suppression effect, it was verified that the effective dose is a low concentration of a hundredth part or more.

[3] = system: granulocytic, monokaryotic and MDSC cell populations in the bone marrow; assay: Number of cells of subpopulations of myeloid-based cell population in bone marrow of tumorigenic mice (Example 5-2); assay type: in vivo, mouse
Protocol: as §4
In order to verify an effect of decitabine or gemcitabine on cells of a subpopulation of myeloid-based cell populations in the bone marrow, decitabine and gemcitabine were administrated to the tumorigenic mice prepared in Example 1 and then the numbers of cells in a granulocytic cell population, a monokaryotic cell population, and an MDSC cell population in the bone marrow were measured.
Particularly, by the method disclosed in Example 3, decitabine (DAC) or gemcitabine (GEM) was administrated and then the bone marrow was extracted. Thereafter, the bone marrow was stained by using the antibodies disclosed in Example 4-2, and then the number of cells was measured through a flow cytometer (FIGS. 11 to 12).

IL-6 = assay: Cytokine expression in tumor cells after decitabine treatment, PCR (Example 7): IL-6; assay type: cell-based; conditions: MC38 expressing the CEA gene, 0, 10, 100 nM, 48 hours; FIG. 14
Protocol: as §1, §2

[4] = system: granulocytic, monokaryotic and MDSC cell populations in the spleen; assay: Number of cells of subpopulations of myeloid-based cell population in spleen of tumorigenic mice (Example 4-2); assay type: in vivo, mouse
Protocol: as §4
In order to verify an effect of decitabine or gemcitabine on cells of a subpopulation of myeloid-based cell populations in the spleen and the bone marrow, decitabine and gemcitabine were administrated to the tumorigenic mice prepared in Example 1 and then the numbers of cells in a granulocytic cell population, a monokaryotic cell population, and an MDSC cell population were measured.
Particularly, by the method disclosed in Example 3, decitabine (DAC) or gemcitabine (GEM) was administrated and then the spleen was extracted. Thereafter, monokaryotic and granulocytic cell populations were stained with fluorescence-bound antibodies purchased by BD Corporation and then the numbers of cells were measured through a flow cytometer.
In order to measure the numbers of cell in the monokaryotic cell population and the granulocytic cell population, anti-CD11b, anti-F480 and anti-Gr1 antibodies were used (FIG. 6).
In order to measure the number of cells of the subpopulation of the MDSC cell population, anti-CD11b, anti-Ly6c and anti-Ly6g antibodies were used (FIG. 7).

[5] = system: colon cancer cell line MC38 expressing a human CEA gene; assay type: in vivo, mouse; conditions: every 2 days, total of 10 times
Protocol: as §3
It was verified whether decitabine was usable as an anticancer chemotherapy through immune treatment based on a bone marrow-based specific drug effect. First, in order to verify an effect of the decitabine on the tumorigenic mice, the decitabine was administrated to the tumorigenic mice prepared in Example 1 and then changes in tumor size and survival rate were measured.
Particularly, in the tumorigenic mice prepared in Example 1, decitabine (DAC) at a concentration of 40 mg/ml purchased from Sigma Co., Ltd. was diluted with 100 μl PBS to be 0, 0.125, 0.25, 0.5, and 1 mg/kg per mouse and then administrated in the right abdominal cavity (every 2 days and a total of 10 times) for each concentration to verify the tumor size and the survival rate. The tumor size was calculated by the following Equation after measuring a width and a length of a tumor mass at an interval of 2 to 3 days from the time when 10 days elapsed after injecting tumor cells: Long length×short length×short length/2. In the survival rate, the number of surviving mice in each group was calculated by the following Equation: The number of surviving mice/a total number of mice×100

[6] = system: immune cells in the bone marrow; assay: Number of immune cells in bone marrow of tumorigenic mice, flow cytometer (Example 5-1); assay type: in vivo, mouse; conditions: for number of T cell populations CD3+ and CD3+CD4+ in the bone marrow: FIG. 8
Protocol: as §4
In order to verify effects of decitabine and gemcitabine on immune cells in the bone marrow, the decitabine and the gemcitabine were administrated to the tumorigenic mice prepared in Example 1 and then the numbers of cells in a T cell population, a B cell population, an NK cell population, an NKT cell population, and a myeloid-based cell population in the bone marrow were measured.
Particularly, by the method disclosed in Example 3, decitabine (DAC) or gemcitabine (GEM) was administrated and then the bone marrow was extracted. Thereafter, the bone marrow was stained by using the antibodies disclosed in Example 4-1, and then the number of cells was measured through a flow cytometer (FIGS. 8 to 10).

[7] = system: immune cells in the spleen; assay: Number of immune cells in spleen of tumorigenic mice, flow cytometer (Example 4-1); assay type: in vivo, mouse; conditions: for T cell populations CD3+, CD3+CD4+, CD3+CD8+ in the spleen: 0, 0.25, 0.5 mg/kg intraperitoneal, FIG. 3
Protocol: as §4
In order to verify effects of decitabine and gemcitabine on immune cells in the spleen, the decitabine and the gemcitabine were administrated to the tumorigenic mice prepared in Example 1 and then the numbers of cells in a T cell population, a B cell population, an NK cell population, an NKT cell population, and a myeloid-based cell population in the spleen were measured.
Particularly, by the method disclosed in Example 3, decitabine (DAC) or gemcitabine (GEM) was administrated and then the spleen was extracted. Thereafter, each immune cell population were stained with fluorescence-bound antibodies purchased by BD Corporation and then the number of cells was measured through a flow cytometer.
In order to measure the number of cells in the T cell population, an anti-CD3 antibody, an anti-CD4 antibody, and an anti-CD8 antibody were used (FIG. 3).
In order to the number of cells in the B cell population, an anti-B220 antibody was used. Further, in order to measure the number of cells in the NK and NKT cell populations, anti-CD3 and anti-NK1.1 antibodies were used (FIG. 4).
In order to measure the number of cells in the myeloid-based cell population, an anti-CD11b antibody and an anti-CD11c antibody were used (FIG. 5).

[8] = system: myeloid-derived suppressor cells; conditions: gemcitabine comparison dose; cited from earlier work
[9] = compared with the gemcitabine, FIG. 11
[10] = similarly to the gemcitabine, FIG. 6
[11] = 0, 0.125, 0.25, 0.5, 1 mg/kg, right abdominal cavity, FIG. 1
[12] = at a lower concentration than gemcitabine, FIG. 4

## O=c1[nH]cc(F)c(=O)[nH]1 [5-FU, 5-fluorouracil]
MDSC
  number of MDSC: significantly reduces

## Nc1ncn([C@H]2C[C@H](O)[C@@H](CO)O2)c(=O)n1 [decitabine, 5-aza-2′-deoxycytidine]
IFN-γ
  creation degree (expression) of IFN-γ in the tumor: reduced
MDSC cell population
  number of cells in the MDSC cell population in vitro: rapid reduction
[1]
  number of bone marrow cells: not significantly exhibited
[1]; dose concentration 0.5 mg/kg, FIG. 2 left
  number of spleen cells: significantly reduced
VEGF
  creation degree (expression) of VEGF in the tumor: reduced
[2]
  dose with excellent MDSC suppression effect: 0.5 mg/kg
[3]; [9]
  granulocytic cell population CD11b+F480-Gr1hi in the bone marrow: more rapid reduction
  monokaryotic cell population CD11b+F480+Gr1- in the bone marrow: more rapid reduction
[3]; to a much higher degree than the gemcitabine, FIG. 12
  subpopulations CD11b+Ly6c+Ly6g+ and CD11b+Ly6chi of the MDSC cell population in the bone marrow: rapid reduction
IL-6
  creation degree (expression) of IL-6 in the tumor: reduced
[4]; [10]
  granulocytic cell population CD11b+F480-Gr1hi in the spleen: rapid reduction
  monokaryotic cell population CD11b+F480+Gr1- in the spleen: rapid reduction
[4]; to the degree of similar to or higher than the gemcitabine, FIG. 7
  subpopulations CD11b+Ly6c+Ly6g+, CD11b+Ly6chi of the MDSC cell population in the spleen: rapid reduction
[5]; [11]
  survival rate: no difference
  tumor size: no difference
[5]; up to 1 mg/kg
  toxicity induction by repeated administration: exclude a toxicity induction possibility
[6]
  number of T cell populations CD3+ and CD3+CD4+ in the bone marrow: increased
[6]; FIG. 9
  NK cell population CD3-NK1.1+ in the bone marrow, significant changes: not induced
  NKT cell population CD3+NK1.1+ in the bone marrow, significant changes: not induced
[6]; as compared with the gemcitabine, FIG. 9
  B cell population B220+ in the bone marrow: reduction
[6]; as compared with the gemcitabine, FIG. 10
  myeloid-based cell populations CD11b+ and CD11c+ in the bone marrow: rapid reduction
[7]
  T cell populations CD3+, CD3+CD4+, CD3+CD8+ in the spleen: slight
[7]; FIG. 4
  NKT cell population CD3+NK1.1+ in the spleen, significant change: not induced
[7]; as compared with the gemcitabine, FIG. 5
  myeloid-based cell populations CD11b+ and CD11c+ in the spleen: rapid reduction
[7]; [12]
  B cell population B220+ in the spleen: reduction
  NK cell population CD3-NK1.1+ in the spleen: reduction

## Nc1ccn([C@@H]2O[C@H](CO)[C@@H](O)C2(F)F)c(=O)n1 [gemcitabine]
[1]
  number of bone marrow cells: increased in a concentration-dependent manner
MDSC
  number of MDSC: significantly reduces
[6]
  number of T cell populations CD3+ and CD3+CD4+ in the bone marrow: increased
[7]
  T cell populations CD3+, CD3+CD4+, CD3+CD8+ in the spleen: rapid reduction
[8]
  effective dose with MDSC suppression effect: 120 mg/kg
